Reference: patent publication US20120077737A1, “HEPATITIS C INHIBITOR COMPOUNDS” (priority 2009, published 2012)
Read-outs that look alike come from different tables or passages of the source.

Legend:
[1] = test system: HCV genotype 1a subgenomic replicon with NS3 resistance mutation D168V; test: HCV replicon RNA replication assay, D168V 1a; type: cell-based, HCV genotype 1a (strain H77), Huh-7 cells; settings: Hepatitis C virus, read-out: D168V 1a Ec50 (nM)
[2] = test system: HCV genotype 1a subgenomic replicon with NS3 resistance mutation R155K; test: HCV replicon RNA replication assay, R155K 1a; type: cell-based, HCV genotype 1a (strain H77), Huh-7 cells; settings: Hepatitis C virus, read-out: R155K 1a Ec50 (nM)
[3] = test system: HCVPV1b subgenomic replicon (wild type 1b); test: HCV replicon RNA replication assay, wild type 1b; type: cell-based, HCV genotype 1b (Con-1), Huh-7 cells; settings: Hepatitis C virus, read-out: WT 1b Ec50
[4] = test system: HCVPV1a subgenomic replicon (wild type 1a); test: HCV replicon RNA replication assay, wild type 1a; type: cell-based, HCV genotype 1a (strain H77), Huh-7 cells; settings: Hepatitis C virus, read-out: WT 1a Ec50
[5] = test system: HCV genotype 1b subgenomic replicon with NS3 resistance mutation D168V; test: HCV replicon RNA replication assay, D168V 1b; type: cell-based, HCV genotype 1b (Con-1), Huh-7 cells; settings: Hepatitis C virus, read-out: D168V 1b Ec50 (nM)
[6] = Table 1, luciferase replicon, Huh-7, 72 h

How did the EC50 ([1]; Huh-7, 72 h) turn out when `COc1ccc2c(O[C@@H]3C[C@H]4C(=O)N[C@]5(C(=O)NS(=O)(=O)C6(C)CC6)C[C@H]5/C=C\CCCCC[C@H](NC(=O)c5ccn(CC(=O)N(C)C)n5)C(=O)N4C3)cc(OC(C)C)nc2c1C` [Compound 1017, (2R,6S,12Z,13aS,14aR,16aS)-6-[({1-[2-(dimethylamino)-2-oxoethyl]-1H-pyrazol-3-yl}carbonyl)amino]-2-{[7-methoxy-8-methyl-2-(propan-2-yloxy)quinolin-4-yl]oxy}-N-[(1-methylcyclopropyl)sulfonyl]-5,16-dioxo-1,2,3,6,7,8,9,10,11,13a,14,15,16,16a-tetradecahydrocyclopropa[e]pyrrolo[1,2-a][1,4]diazacyclopentadecine-14a(5H)-carboxamide] was run?
Its EC50 is 2.7 nM.

And the EC50 ([2]; Huh-7, 72 h)?
The EC50 was 1.2 nM.

And the EC50 [3, 6]?
Its EC50 is 1.1 nM.

What about the EC50 [4, 6] of the same molecule?
Its EC50 is 1.1 nM.

What about the EC50 ([5]; Huh-7, 72 h) of the same molecule?
The EC50 was 1.5 nM.

Which EC50 ([1]; Huh-7, 72 h) does the source give for `COc1ccc2c(O[C@@H]3C[C@H]4C(=O)N[C@]5(C(=O)NS(=O)(=O)C6CC6)C[C@H]5/C=C\CCCCC[C@H](NC(=O)c5ccn(CC(F)F)n5)C(=O)N4C3)cc(OC(C)C)nc2c1C` [Compound 1011, (2R,6S,12Z,13aS,14aR,16aS)-N-(cyclopropylsulfonyl)-6-({[1-(2,2-difluoroethyl)-1H-pyrazol-3-yl]carbonyl}amino)-2-{[7-methoxy-8-methyl-2-(propan-2-yloxy)quinolin-4-yl]oxy}-5,16-dioxo-1,2,3,6,7,8,9,10,11,13a,14,15,16,16a-tetradecahydrocyclopropa[e]pyrrolo[1,2-a][1,4]diazacyclopentadecine-14a(5H)-carboxamide] here?
The EC50 was 6.4 nM.

What about the EC50 ([2]; Huh-7, 72 h) of the same molecule?
The EC50 was 3.9 nM.

What about the EC50 [3, 6] of the same molecule?
The EC50 was 0.35 nM.

And the EC50 [4, 6]?
The EC50 was 0.43 nM.

What about the EC50 ([5]; Huh-7, 72 h) of the same molecule?
Its EC50 is 0.24 nM.

`COc1c(F)ccc2c(O[C@@H]3C[C@H]4C(=O)N[C@]5(C(=O)NS(=O)(=O)C6(C)CC6)C[C@H]5/C=C\CCCCC[C@H](NC(=O)c5ccn(CC(F)(F)F)n5)C(=O)N4C3)cc(OC(C)C)nc12` [Compound 1026, (2R,6S,12Z,13aS,14aR,16aS)-2-{[7-fluoro-8-methoxy-2-(propan-2-yloxy)quinolin-4-yl]oxy}-N-[(1-methylcyclopropyl)sulfonyl]-5,16-dioxo-6-({[1-(2,2,2-trifluoroethyl)-1H-pyrazol-3-yl]carbonyl}amino)-1,2,3,6,7,8,9,10,11,13a,14,15,16,16a-tetradecahydrocyclopropa[e]pyrrolo[1,2-a][1,4]diazacyclopentadecine-14a(5H)-carboxamide] was tested. Which EC50 ([1]; Huh-7, 72 h) did it give?
Its EC50 is 0.7 nM.

And the EC50 ([2]; Huh-7, 72 h)?
Its EC50 is 1.6 nM.

And the EC50 [3, 6]?
Its EC50 is 0.31 nM.

What about the EC50 [4, 6] of the same molecule?
The EC50 was 0.52 nM.

And the EC50 ([5]; Huh-7, 72 h)?
Its EC50 is 0.34 nM.

Which EC50 ([1]; Huh-7, 72 h) does the source give for `COCc1ccc(C(=O)N[C@H]2CCCCC/C=C\[C@@H]3C[C@@]3(C(=O)NS(=O)(=O)C3CC3)NC(=O)[C@@H]3C[C@@H](Oc4cc(OC(C)C)nc5c(C)c(OC)ccc45)CN3C2=O)s1` [Compound 1009, (2R,6S,12Z,13aS,14aR,16aS)-N-(cyclopropylsulfonyl)-2-{[7-methoxy-8-methyl-2-(propan-2-yloxy)quinolin-4-yl]oxy}-6-({[5-(methoxymethyl)thiophen-2-yl]carbonyl}amino)-5,16-dioxo-1,2,3,6,7,8,9,10,11,13a,14,15,16,16a-tetradecahydrocyclopropa[e]pyrrolo[1,2-a][1,4]diazacyclopentadecine-14a(5H)-carboxamide] here?
The EC50 was 7.2 nM.

And the EC50 ([2]; Huh-7, 72 h)?
Its EC50 is 3.6 nM.

What about the EC50 [3, 6] of the same molecule?
Its EC50 is 0.46 nM.

What about the EC50 [4, 6] of the same molecule?
Its EC50 is 0.43 nM.

And the EC50 ([5]; Huh-7, 72 h)?
The EC50 was 0.24 nM.

For `Cc1c(F)ccc2c(O[C@@H]3C[C@H]4C(=O)N[C@]5(C(=O)NS(=O)(=O)C6(C)CC6)C[C@H]5/C=C\CCCCC[C@H](NC(=O)c5ccn(C)n5)C(=O)N4C3)cc(OC(C)C)nc12` [Compound 1008, (2R,6S,12Z,13aS,14aR,16aS)-2-{[7-fluoro-8-methyl-2-(propan-2-yloxy)quinolin-4-yl]oxy}-N-[(1-methylcyclopropyl)sulfonyl]-6-{[(1-methyl-1H-pyrazol-3-yl)carbonyl]amino}-5,16-dioxo-1,2,3,6,7,8,9,10,11,13a,14,15,16,16a-tetradecahydrocyclopropa[e]pyrrolo[1,2-a][1,4]diazacyclopentadecine-14a(5H)-carboxamide], which EC50 ([1]; Huh-7, 72 h) is on record?
The EC50 was 6.6 nM.

What about the EC50 ([2]; Huh-7, 72 h) of the same molecule?
Its EC50 is 1.9 nM.

And the EC50 [3, 6]?
The EC50 was 0.35 nM.

What about the EC50 [4, 6] of the same molecule?
The EC50 was 0.24 nM.

And the EC50 ([5]; Huh-7, 72 h)?
Its EC50 is 0.2 nM.

Which EC50 ([1]; Huh-7, 72 h) does the source give for `COc1c(F)ccc2c(O[C@@H]3C[C@H]4C(=O)N[C@]5(C(=O)NS(=O)(=O)C6(C)CC6)C[C@H]5/C=C\CCCCC[C@H](NC(=O)c5ccn(C(C)C)n5)C(=O)N4C3)cc(OC(C)C)nc12` [Compound 1023, (2R,6S,12Z,13aS,14aR,16aS)-2-{[7-fluoro-8-methoxy-2-(propan-2-yloxy)quinolin-4-yl]oxy}-N-[(1-methylcyclopropyl)sulfonyl]-5,16-dioxo-6-({[1-(propan-2-yl)-1H-pyrazol-3-yl]carbonyl}amino)-1,2,3,6,7,8,9,10,11,13a,14,15,16,16a-tetradecahydrocyclopropa[e]pyrrolo[1,2-a][1,4]diazacyclopentadecine-14a(5H)-carboxamide] here?
Its EC50 is 0.83 nM.

And the EC50 ([2]; Huh-7, 72 h)?
Its EC50 is 3.1 nM.

And the EC50 [3, 6]?
The EC50 was 0.4 nM.

And the EC50 [4, 6]?
The EC50 was 0.37 nM.

And the EC50 ([5]; Huh-7, 72 h)?
Its EC50 is 0.52 nM.

What does the source list for `COc1ccc2c(O[C@@H]3C[C@H]4C(=O)N[C@@]5(C(=O)NS(=O)(=O)C6CC6)C[C@@H]5/C=C\CCCCN(C)C(=O)[C@@H]4C3)cc(-c3nc(C(C)C)cs3)nc2c1C` [reference compound]?
EC50 [1]: 3500 nM; EC50 [2]: 300 nM; EC50 ([3]; Table 2, clinical comparators, wildtype genotype 1b): 1.2 nM; EC50 ([4]; Table 2, clinical comparators, wildtype genotype 1a): 0.7 nM; EC50 [5]: 4400 nM

`COc1c(F)ccc2c(O[C@@H]3C[C@H]4C(=O)N[C@]5(C(=O)NS(=O)(=O)C6(C)CC6)C[C@H]5/C=C\CCCCC[C@H](NC(=O)c5ccc(C)s5)C(=O)N4C3)cc(OC(C)C)nc12` [Compound 1028, (2R,6S,12Z,13aS,14aR,16aS)-2-{[7-fluoro-8-methoxy-2-(propan-2-yloxy)quinolin-4-yl]oxy}-N-[(1-methylcyclopropyl)sulfonyl]-6-{[(5-methylthiophen-2-yl)carbonyl]amino}-5,16-dioxo-1,2,3,6,7,8,9,10,11,13a,14,15,16,16a-tetradecahydrocyclopropa[e]pyrrolo[1,2-a][1,4]diazacyclopentadecine-14a(5H)-carboxamide] was tested. Which EC50 ([1]; Huh-7, 72 h) did it give?
Its EC50 is 5.5 nM.

What about the EC50 ([2]; Huh-7, 72 h) of the same molecule?
The EC50 was 6.5 nM.

What about the EC50 [3, 6] of the same molecule?
The EC50 was 0.69 nM.

And the EC50 [4, 6]?
The EC50 was 1.1 nM.

What about the EC50 ([5]; Huh-7, 72 h) of the same molecule?
Its EC50 is 0.52 nM.

`COc1c(F)ccc2c(O[C@@H]3C[C@H]4C(=O)N[C@]5(C(=O)NS(=O)(=O)C6(C)CC6)C[C@H]5/C=C\CCCCC[C@H](NC(=O)c5ccn(CCF)n5)C(=O)N4C3)cc(OC(C)C)nc12` [Compound 1021, (2R,6S,12Z,13aS,14aR,16aS)-6-({[1-(2-fluoroethyl)-1H-pyrazol-3-yl]carbonyl}amino)-2-{[7-fluoro-8-methoxy-2-(propan-2-yloxy)quinolin-4-yl]oxy}-N-[(1-methylcyclopropyl)sulfonyl]-5,16-dioxo-1,2,3,6,7,8,9,10,11,13a,14,15,16,16a-tetradecahydrocyclopropa[e]pyrrolo[1,2-a][1,4]diazacyclopentadecine-14a(5H)-carboxamide] was tested. Which EC50 ([1]; Huh-7, 72 h) did it give?
The EC50 was 0.93 nM.

And the EC50 ([2]; Huh-7, 72 h)?
Its EC50 is 1.9 nM.

What about the EC50 [3, 6] of the same molecule?
Its EC50 is 0.48 nM.

What about the EC50 [4, 6] of the same molecule?
Its EC50 is 0.34 nM.

And the EC50 ([5]; Huh-7, 72 h)?
The EC50 was 0.53 nM.
